In patent US8853213B2, “Bicyclic compound for modulating G protein-coupled receptors” (Hanmi Pharm. Co., Ltd, priority 2011, dated 2014):

Target: T1, GPR119 (Homo sapiens, UniProt Q8TDV5)
T1 construct: host or cells: CHO-K1 (CRE-bla reporter, doxycycline-induced)
T1 sequence (Q8TDV5 1-335): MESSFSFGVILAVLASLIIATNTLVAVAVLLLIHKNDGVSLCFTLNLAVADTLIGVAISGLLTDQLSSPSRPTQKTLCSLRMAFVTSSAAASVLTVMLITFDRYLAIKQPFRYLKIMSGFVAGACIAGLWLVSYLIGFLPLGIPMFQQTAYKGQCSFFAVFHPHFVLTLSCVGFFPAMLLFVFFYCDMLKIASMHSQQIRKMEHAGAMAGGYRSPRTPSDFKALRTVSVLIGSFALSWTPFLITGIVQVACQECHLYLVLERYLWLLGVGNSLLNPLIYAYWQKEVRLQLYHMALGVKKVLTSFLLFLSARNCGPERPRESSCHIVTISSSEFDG
Experiment: Controlling Effect of GPR119 in CRE-bla CHO-K1 Cells (EC50)
Format: cell-based
Conditions: GPR119 CRE-bla CHO-K1 cell line, 5 hr incubation with compound, β-lactamase LiveBLAzer-FRET B/G readout; read-out: controlling effect against GPR119 in CRE-bla CHO-K1 cell line (EC50)
Method in brief: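 CHO-K1 cells carrying GPR119 and a CRE-β-lactamase reporter, induced with doxycycline for 16-20 h at 37° C, then exposed to compounds in 10-fold dilutions for 5 h. CCF4-AM FRET substrate added for 2 h at room temperature; blue/green fluorescence (409 ex, […]) read and EC50 derived.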

## CS(=O)(=O)c1ccc(-c2csc3c(OC4CCN(c5nc(-c6ccncc6)no5)CC4)ncnc23)c(F)c1 [Example 66, 5-(4-(7-(2-fluoro-4-methanesulfonyl-phenyl)thieno[3,2-d]pyrimidin-4-yloxy)piperidin-1-yl)-3-(pyridin-4-yl)-1,2,4-oxadiazole]
  EC50: < 100 nM

## CS(=O)(=O)c1ccc(-c2csc3c(OC4CCN(c5nc(-c6cccnc6)no5)CC4)ncnc23)c(F)c1 [Example 67, 5-(4-(7-(2-fluoro-4-methanesulfonyl-phenyl)thieno[3,2-d]pyrimidin-4-yloxy)piperidin-1-yl)-3-(pyridin-3-yl)-1,2,4-oxadiazole]
  EC50: < 100 nM

## CS(=O)(=O)c1ccc(-c2csc3c(OC4CCN(c5nc(-c6cnccn6)no5)CC4)ncnc23)c(F)c1 [Example 68, 5-(4-(7-(2-fluoro-4-methanesulfonyl-phenyl)thieno[3,2-d]pyrimidin-4-yloxy)piperidin-1-yl)-3-(pyrazin-2-yl)-1,2,4-oxadiazole]
  EC50: 100 to 1000 nM

## CS(=O)(=O)c1ccc(-c2csc3c(OC4CCN(c5nc(CC6CC6)no5)CC4)ncnc23)c(F)c1 [Example 69, 7-(2-fluoro-4-methanesulfonyl-phenyl)-4-[1-(3-cyclopropylmethyl-[1,2,4]oxadiazol-5-yl)piperidin-4-yloxy]thieno[3,2-d]pyrimidine]
  EC50: < 100 nM

## CS(=O)(=O)c1ccc(-c2csc3c(OC4CCN(c5nc(C6CCCC6)no5)CC4)ncnc23)c(F)c1 [Example 70, 7-(2-fluoro-4-methanesulfonyl-phenyl)-4-[1-(3-cyclopentyl-[1,2,4]oxadiazol-5-yl)piperidin-4-yloxy]thieno[3,2-d]pyrimidine]
  EC50: < 100 nM

## CC(C)(C)c1noc(N2CCC(Oc3ncnc4c(-c5ccc(S(C)(=O)=O)cc5F)csc34)CC2)n1 [Example 71, 7-(2-fluoro-4-methanesulfonyl-phenyl)-4-[1-(3-t-butyl-[1,2,4]oxadiazol-5-yl)piperidin-4-yloxy]thieno[3,2-d]pyrimidine]
  EC50: < 100 nM

## CC(C)(C)OC(=O)N1CCC(Oc2ncnc3c(-c4ccc(S(C)(=O)=O)cc4F)csc23)CC1 [Example 72, tert-butyl 4-(7-(2-fluoro-4-methanesulfonyl-phenyl)thieno[3,2-d]pyrimidin-4-yloxy)piperidin-1-carboxylate]
  EC50: < 100 nM

## CC(C)OC(=O)N1CCC(Oc2ncnc3c(-c4ccc(S(C)(=O)=O)cc4F)csc23)CC1 [Example 73, isopropyl 4-(7-(2-fluoro-4-methanesulfonyl-phenyl)thieno[3,2-d]pyrimidin-4-yloxy)piperidin-1-carboxylate]
  EC50: < 100 nM

## CN1CCC(Oc2ncnc3c(-c4ccc(S(C)(=O)=O)cc4F)csc23)CC1 [Example 74, 7-(2-fluoro-4-methanesulfonyl-phenyl)-4-[1-methylpiperidin-4-yloxy]thieno[3,2-d]pyrimidine]
  EC50: > 1000 nM

## CS(=O)(=O)c1ccc(-c2csc3c(OC4CCN(C#N)CC4)ncnc23)c(F)c1 [Example 75, 4-(7-(2-fluoro-4-methanesulfonyl-phenyl)thieno[3,2-d]pyrimidin-4-yloxy)piperidin-1-carbonitrile]
  EC50: 100 to 1000 nM

## CS(=O)(=O)c1ccc(-c2csc3c(OC4CCNCC4)ncnc23)c(F)c1 [Example 76, 7-(2-fluoro-4-methanesulfonyl-phenyl)-4-[piperidin-4-yloxy]thieno[3,2-d]pyrimidine]
  EC50: > 1000 nM

## CS(=O)(=O)c1ccc(-c2csc3c(OC4CCN(c5nc6ccccc6o5)CC4)ncnc23)c(F)c1 [Example 77, 2-(4-(7-(2-fluoro-4-methanesulfonyl-phenyl)thieno[3,2-d]pyrimidin-4-yloxy)piperidin-1-yl)benzo[d]oxazole]
  EC50: < 100 nM

## CC(C)Cc1noc(N2CCC(Oc3ncnc4c(-c5ccc(S(C)(=O)=O)cc5F)csc34)CC2)n1 [Example 78, 7-(2-fluoro-4-methanesulfonyl-phenyl)-4-[1-(3-isobutyl-[1,2,4]oxadiazol-5-yl)piperidin-4-yloxy]thieno[3,2-d]pyrimidine]
  EC50: < 100 nM

## CS(=O)(=O)c1ccc(-c2csc3c(OC4CCN(c5nc(C6CCCCC6)no5)CC4)ncnc23)c(F)c1 [Example 79, 7-(2-fluoro-4-methanesulfonyl-phenyl)-4-[1-(3-cyclohexyl-[1,2,4]oxadiazol-5-yl)piperidin-4-yloxy]thieno[3,2-d]pyrimidine]
  EC50: < 100 nM

## CS(=O)(=O)c1ccc(-c2csc3c(OC4CCN(c5nc(C6CC7CCC6C7)no5)CC4)ncnc23)c(F)c1 (stereo not shown) [Example 80, 7-(2-fluoro-4-methanesulfonyl-phenyl)-4-[1-(3-bicyclo[2,2,1]heptan-2-yl[1,2,4]oxadiazol-5-yl)piperidin-4-yloxy]thieno[3,2-d]pyrimidine]
  EC50: < 100 nM

## CCc1cnc(N2CCC(Oc3ncnc4c(-c5ccc(S(C)(=O)=O)cc5F)csc34)CC2)nc1 [Example 81, 4-[1-(5-ethylpyrimidin-2-yl)-piperidin-4-yloxy]-7-(2-fluoro-4-methanesulfonyl-phenyl)-thieno[3,2-d]pyrimidine]
  EC50: < 100 nM

## CCCc1cnc(N2CCC(Oc3ncnc4c(-c5ccc(S(C)(=O)=O)cc5F)csc34)CC2)nc1 [Example 83, 7-(2-fluoro-4-methanesulfonyl-phenyl)-4-[1-(5-propyl-pyrimidin-2-yl)-piperidin-4-yloxy]-thieno[3,2-d]pyrimidine]
  EC50: < 100 nM

## CS(=O)(=O)c1ccc(-c2csc3c(OC4CCN(c5ncc(C6CC6)cn5)CC4)ncnc23)c(F)c1 [Example 84, 7-(2-fluoro-4-methanesulfonyl-phenyl)-4-[1-(5-cyclopropyl-pyrimidin-2-yl)-piperidin-4-yloxy]-thieno[3,2-d]pyrimidine]
  EC50: < 100 nM

## CS(=O)(=O)c1ccc(-c2csc3c(OC4CCN(c5ncccn5)CC4)ncnc23)c(F)c1 [Example 85, 7-(2-fluoro-4-methanesulfonyl-phenyl)-4-(1-pyrimidin-2-yl-piperidin-4-yloxy)-thieno[3,2-d]pyrimidine]
  EC50: < 100 nM

## CC(C)c1ccc(-c2cnc(N3CCC(Oc4ncnc5c(-c6ccc(S(C)(=O)=O)cc6F)csc45)CC3)nc2)cc1 [Example 86, 7-(2-fluoro-4-methanesulfonyl-phenyl)-4-{1-[5-(4-isopropylphenyl)-pyrimidin-2-yl)-piperidin-4-yloxy]-thieno[3,2-d]pyrimidine]
  EC50: < 100 nM

## CC(=O)N1CCC(Oc2ncnc3c(-c4ccc(S(C)(=O)=O)cc4F)csc23)CC1 [Example 87, 1-(4-(7-(2-fluoro-4-methanesulfonyl-phenyl)thieno[3,2-d]pyrimidin-4-yloxy)piperidin-1-yl)ethanone]
  EC50: > 1000 nM

## CC(C)(C)C(=O)N1CCC(Oc2ncnc3c(-c4ccc(S(C)(=O)=O)cc4F)csc23)CC1 [Example 88, 1-(4-(7-(2-fluoro-4-methanesulfonyl-phenyl)thieno[3,2-d]pyrimidin-4-yloxy)piperidin-1-yl)-2,2-dimethylpropan-1-one]
  EC50: < 100 nM

## CS(=O)(=O)c1ccc(-c2csc3c(OC4CCN(C(=O)c5ccccc5)CC4)ncnc23)c(F)c1 [Example 89, {4-[7-(2-fluoro-4-methanesulfonyl-phenyl)-thieno[3,2-d]pyrimidin-4-yloxy]-piperidin-1-yl}phenyl-methanone]
  EC50: < 100 nM

## CS(=O)(=O)c1ccc(-c2csc3c(OC4CCN(C(=O)c5cccnc5)CC4)ncnc23)c(F)c1 [Example 90]
  EC50: > 1000 nM

## CS(=O)(=O)c1ccc(-c2csc3c(OC4CCN(Cc5ccccc5)CC4)ncnc23)c(F)c1 [Example 91, 4-(1-benzylpiperidin-4-yloxy]-7-(2-fluoro-4-methanesulfonyl-phenyl)thieno[3,2-d]pyrimidine]
  EC50: < 100 nM

## CC(C)c1csc(N2CCC(Oc3ncnc4c(-c5ccc(S(C)(=O)=O)cc5F)csc34)CC2)n1 [Example 93, 7-(2-fluoro-4-methanesulfonyl-phenyl)-4-[1-(4-isopropyl-thiazo-2-yl)piperidin-4-yloxy]-thieno[3,2-d]pyrimidine]
  EC50: > 1000 nM

## CC(C)n1nnc(N2CCC(Oc3ncnc4c(-c5ccc(S(C)(=O)=O)cc5F)csc34)CC2)n1 [Example 94, 7-(2-fluoro-4-methanesulfonyl-phenyl)-4-(1-(2-isopropyl-2H-tetrazol-5-yl)piperidin-4-yloxy)thieno[3,2-d]pyrimidine]
  EC50: < 100 nM

## CC(C)c1nc(N2CCC(Oc3ncnc4c(-c5ccc(S(C)(=O)=O)cc5F)csc34)CC2)no1 [Example 95, 7-(2-fluoro-4-methanesulfonyl-phenyl)-4[1-(5-isopropyl-[1,2,4]oxadiazol-3-yl)-piperidin-4-yloxy]-thieno[3,2d]pyrimidine]
  EC50: < 100 nM

## COc1ccc(-c2csc3c(OC4CCN(c5nc(C(C)C)no5)CC4)ncnc23)c(Cl)c1 [Example 96, 5-(4-(7-(2-chloro-4-methoxyphenyl)thieno[3,2-d]pyrimidin-4-yloxy)piperidin-1-yl)-3-isopropyl-1,2,4-oxadiazole]
  EC50: < 100 nM

## CC(C)c1noc(N2CCC(Oc3ncnc4c(-c5ccc(F)c(F)c5F)csc34)CC2)n1 [Example 97, 4-[1-(3-isopropyl-[1,2,4]oxadiazol-5-yl)-piperidin-4-yloxy]-7-(2,3,4-trifluoro-phenyl)-thieno[3,2-d]pyrimidine]
  EC50: > 1000 nM

## COc1ccc(-c2csc3c(OC4CCN(c5nc(C(C)C)no5)CC4)ncnc23)cc1F [Example 98, 7-(3-fluoro-4-methoxy-phenyl)-4-[1-(3-isopropyl-[1,2,4]oxadiazol-5-yl)-piperidin-4-yloxy]-thieno[3,2-d]pyrimidine]
  EC50: > 1000 nM
